The target in assay [1] is Carbonic anhydrase 2 (Homo sapiens) (UniProt P00918).
Description: Inhibition of human carbonic anhydrase-2
The target in assay [2] is Carbonic anhydrase 9 (Homo sapiens) (UniProt Q16790).
Description: Inhibition of human carbonic anhydrase-9

The text below walks through data of ChEMBL document CHEMBL2331360, “QSAR studies of sulfamate and sulfamide inhibitors targeting human carbonic anhydrase isozymes I, II, IX and XII” (Bioorg Med Chem, 2013).

As to `CC(NC(=O)Nc1ccc(NS(N)(=O)=O)cc1)c1cccc2ccccc12` (stereo not drawn), the log(43000/Ki) in assay [1] was 2.02; in assay [2], 3.35.
The corresponding values for `NS(=O)(=O)Nc1ccc(NC(=O)NCc2ccccc2)cc1` are 2.47 and 3.63.
For `NS(=O)(=O)Nc1ccc(NC(=O)NC2CCCCC2)cc1`, in that order: 2.08 and 2.55.
As for `NS(=O)(=O)Nc1ccc(NC(=O)Nc2ccc(Cl)cc2)cc1`, the log(43000/Ki) in assay [1] is 2.13; in assay [2] it was 3.
The corresponding values for `NS(=O)(=O)Nc1ccc(NC(=O)Nc2ccccc2-c2ccccc2)cc1` are 1.68 and 2.47.
For `NS(=O)(=O)Nc1ccc(NC(=O)Nc2cccc([N+](=O)[O-])c2)cc1`, in that order: 2.01 and 3.43.
Turning to `CCCCOc1ccc(NC(=O)Nc2ccc(NS(N)(=O)=O)cc2)cc1`, the log(43000/Ki) in assay [1] stood at 2.14; in assay [2], 3.43.
For `CC(C)c1ccccc1NC(=O)Nc1ccc(NS(N)(=O)=O)cc1`, in that order: 1.8 and 2.64.
The corresponding values for `Cc1cc(C)cc(NC(=O)Nc2ccc(NS(N)(=O)=O)cc2)c1` are 1.8 and 3.63.
On to `COc1ccc(C)cc1NC(=O)Nc1ccc(NS(N)(=O)=O)cc1`, for which the log(43000/Ki) in assay [1] came out at 1.99; in assay [2], 3.03.
For `NS(=O)(=O)Oc1ccc(NC(=O)NC23CC4CC(CC(C4)C2)C3)cc1`, the log(43000/Ki) in assay [1] was determined as 1.96; in assay [2], 3.31.
In the case of `NS(=O)(=O)Nc1ccc(NC(=O)NCc2ccco2)cc1`, the log(43000/Ki) in assay [1] came to 2.1; in assay [2], 3.35.
For `COc1ccc(NC(=O)Nc2ccc(NS(N)(=O)=O)cc2)c(C)c1`, in that order: 2.14 and 3.31.
For `NS(=O)(=O)Nc1ccc(NC(=O)NCCc2ccccc2)cc1`, in that order: 2.44 and 3.59.
